This is an account of results in US20020192171A1, “Method for preventing malodor” (priority 2001, published 2002).

One data set concerns underarm odor. As to the kind of experiment: Deodorant value test (modified), odor assessment on axillae of human subjects. Type of data set: in vivo. To be noted: general statement in description. As to the method: A typical test for deodorant effect of the present invention was carried out as follows. The test solution was the composition containing 0.4% monensin. The positive control was 8.2% aluminum chlorhydrate, a level that is used in most deodorant or antiperspirant products on the market and 0.4% chlorhesidine digluconate, a level that is usually used for bacterial killing. The negative control was a vehicle consisting of 60% ethanol and 40% water. Three experienced underarm odor assessors who are able to rank correctly the odor intensities based on the deodorant value test system (U.S. Pat. No. 4,278,658) performed odor assessments. Deodorant assessment scores were recorded according to the malodor category scale, when applied directly to the axillae skin of a panel of human subjects. [table] The described in deodorant value test system has been modified by measuring odor intensity every 24 hours after treatment until odor intensity is detectable (average score 1 or up) on a 0-5 score instead of just 24 hours after In example 2, fifteen subjects selected by experienced odor assessors have average odor score 3.5 (range from score 3-5). […] At 24 hour intervals, each subject was evaluated for underarm odor by averaging the score of the three assessors until odor in test groups was detectable (score 1 or up).

The test system of another data set is skin. To be noted: human, in vivo.

In the case of `CC[C@@]1([C@@H]2O[C@@H]([C@H]3O[C@@](O)(CO)[C@H](C)C[C@@H]3C)C[C@@H]2C)CC[C@H]([C@]2(C)CC[C@]3(C[C@H](O)[C@@H](C)[C@@H]([C@@H](C)[C@@H](OC)[C@H](C)C(=O)O)O3)O2)O1` [monensin, Monensin], the “duration of deodorant effect in preventing malodor” value in the data set on underarm odor is recorded as “deodorant effect with a longer period than expected”. Also, the skin irritation entry in the data set on skin is on record as “did not cause any irritation”.
